Reference: US20240109917A1 (ACTELION PHARMACEUTICALS LTD, priority 2020, published 2024)
Like-named read-outs stand apart in the source and are kept apart here.

Biological target: PDGFRβ (Rattus norvegicus (Rat), UniProt Q05030)
Assay: PDGFRβ Cellular Assay (PDGFRb P-Y751 HTRF in A10 cells stimulated with PDGF-BB)
Type: cell-based
Method in brief: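 Rat A10 cells, plated overnight, were treated with compound for 3 hours, then stimulated with PDGF-BB (working stock 100 ng/mL in 10% FBS medium). After lysis, PDGFRβ P-Y751 was detected by HTRF.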

PDGFRβ, sequence (Q05030 32-1097): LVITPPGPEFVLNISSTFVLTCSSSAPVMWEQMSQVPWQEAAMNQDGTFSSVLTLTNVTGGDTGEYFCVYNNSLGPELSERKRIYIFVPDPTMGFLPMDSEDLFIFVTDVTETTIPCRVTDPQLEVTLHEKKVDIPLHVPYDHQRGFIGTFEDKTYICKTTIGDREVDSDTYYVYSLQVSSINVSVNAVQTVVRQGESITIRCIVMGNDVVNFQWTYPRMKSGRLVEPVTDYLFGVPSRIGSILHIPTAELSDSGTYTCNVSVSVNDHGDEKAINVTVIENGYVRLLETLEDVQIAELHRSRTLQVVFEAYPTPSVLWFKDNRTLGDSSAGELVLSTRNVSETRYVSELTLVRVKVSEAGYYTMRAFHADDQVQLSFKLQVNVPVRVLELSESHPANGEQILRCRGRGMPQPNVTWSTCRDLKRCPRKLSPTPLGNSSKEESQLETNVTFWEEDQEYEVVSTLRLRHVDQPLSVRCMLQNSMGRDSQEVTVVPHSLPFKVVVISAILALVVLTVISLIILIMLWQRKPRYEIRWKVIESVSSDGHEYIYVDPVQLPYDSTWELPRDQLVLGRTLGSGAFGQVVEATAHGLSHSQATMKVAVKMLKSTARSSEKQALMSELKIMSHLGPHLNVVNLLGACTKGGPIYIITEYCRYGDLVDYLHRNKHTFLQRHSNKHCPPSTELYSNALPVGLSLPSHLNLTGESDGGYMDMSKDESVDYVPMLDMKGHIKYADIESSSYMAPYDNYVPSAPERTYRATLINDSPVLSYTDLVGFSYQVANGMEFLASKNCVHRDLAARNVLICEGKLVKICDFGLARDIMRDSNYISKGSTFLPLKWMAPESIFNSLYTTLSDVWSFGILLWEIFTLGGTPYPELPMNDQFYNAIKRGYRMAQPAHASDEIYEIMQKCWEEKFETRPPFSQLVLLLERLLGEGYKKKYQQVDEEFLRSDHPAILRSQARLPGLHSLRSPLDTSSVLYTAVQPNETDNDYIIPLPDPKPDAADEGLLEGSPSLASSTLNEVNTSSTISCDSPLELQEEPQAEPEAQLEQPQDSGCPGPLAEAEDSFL

Row | SMILES | IC50 (read-out: PDGFR Cellular IC50) [nM] | IC50 (PDGFR Cellular IC50) [nM]
1 | Cc1ncc(NC(=O)CN2CCCC2(C)C)cc1NC(=O)c1cnn2cc(-c3cccn(CCF)c3=O)sc12 [Example 449, N-(5-(2-(2,2-dimethylpyrrolidin-1-yl)acetamido)-2-methylpyridin-3-yl)-2-(1-(2-fluoroethyl)-2-oxo-1,2-dihydropyridin-3-yl)pyrazolo[5,1-b]thiazole-7-carboxamide] | 10.6 | 
2 | Cc1ncc(NC(=O)CN2CCCC[C@@H]2C)cc1NC(=O)c1cnn2cc(-c3cnn(CCO)c3)sc12 [Example 34, (S)-2-(1-(2-hydroxyethyl)-1H-pyrazol-4-yl)-N-(2-methyl-5-(2-(2-methyl-piperidin-1-yl)acetamido)pyridin-3-yl)pyrazolo[5,1-b]thiazole-7-carboxamide] |  | 30.3
3 | Cc1ncc(C(=O)NCCN2CC3CCC2CC3)cc1NC(=O)c1cnn2cc(-c3cnn4c3CCC4)sc12 [Example 480, N-(5-((2-(2-azabicyclo[2.2.2]octan-2-yl)ethyl)carbamoyl)-2-methylpyridin-3-yl)-2-(5,6-dihydro-4H-pyrrolo[1,2-b]pyrazol-3-yl)pyrazolo[5,1-b]thiazole-7-carboxamide] | 19.5 | 
4 | Cc1ncc(NC(=O)CN2CC(C)(C)C2)cc1NC(=O)c1cnn2cc(-c3cnn(CCS(C)(=O)=O)c3)sc12 [Example 435, N-(5-(2-(3,3-Dimethylazetidin-1-yl)acetamido)-2-methylpyridin-3-yl)-2-(1-(2-(methylsulfonyl)ethyl)-1H-pyrazol-4-yl)pyrazolo[5,1-b]thiazole-7-carboxamide] | 139 | 
5 | Cc1ncc(NC(=O)CN2CCCCCC2)cc1NC(=O)c1cnn2cc(-c3cnn4c3OCCC4)sc12 [Example 420, N-(5-(2-(azepan-1-yl)acetamido)-2-methylpyridin-3-yl)-2-(6,7-dihydro-5H-pyrazolo[5,1-b][1,3]oxazin-3-yl)pyrazolo[5,1-b]thiazole-7-carboxamide] | 2.1 | 
6 | Cc1ncc(NC(=O)CN2CC3(CCCCO3)C2)cc1NC(=O)c1cnn2cc(-c3cnn4c3OCCC4)sc12 [Example 423, N-(5-(2-(5-oxa-2-azaspiro[3.5]nonan-2-yl)acetamido)-2-methylpyridin-3-yl)-2-(6,7-dihydro-5H-pyrazolo[5,1-b][1,3]oxazin-3-yl)pyrazolo[5,1-b]thiazole-7-carboxamide] | 15.8 | 
7 | COCCn1cc(-c2cn3ncc(C(=O)Nc4cc(NC(=O)CCC5CCCN5C(C)C)cnc4C)c3s2)cn1 (stereo not drawn) [Example 463, N-(5-(3-(1-isopropylpyrrolidin-2-yl)propanamido)-2-methylpyridin-3-yl)-2-(1-(2-methoxyethyl)-1H-pyrazol-4-yl)pyrazolo[5,1-b]thiazole-7-carboxamide] | 782 | 
8 | Cc1ncc(NC(=O)CN2CCC23CCC3)cc1NC(=O)c1cnn2cc(-c3cnn4c3OCCC4)sc12 [Example 408, N-(5-(2-(1-azaspiro[3.3]heptan-1-yl)acetamido)-2-methylpyridin-3-yl)-2-(6,7-dihydro-5H-pyrazolo[5,1-b][1,3]oxazin-3-yl)pyrazolo[5,1-b]thiazole-7-carboxamide] | 1.7 | 
9 | Cc1cc(C(=O)NCCN2CCCC2(C)C)sc1NC(=O)c1cnn2cc(-c3cccnc3)sc12 [Example 36, N-(5-((2-(2,2-dimethylpyrrolidin-1-yl)ethyl)carbamoyl)-3-methylthiophen-2-yl)-2-(pyridin-3-yl)pyrazolo[5,1-b]thiazole-7-carboxamide] | 9 | 
10 | Cc1ncc(NC(=O)CN2CCCC2(C)C)cc1NC(=O)c1cnn2cc(-c3cccnc3OCCF)sc12 [Example 448, N-(5-(2-(2,2-dimethylpyrrolidin-1-yl)acetamido)-2-methylpyridin-3-yl)-2-(2-(2-fluoroethoxy)pyridin-3-yl)pyrazolo[5,1-b]thiazole-7-carboxamide] | 2.4 | 
11 | Cc1ncc(NC(=O)CN2C[C@@H](C)O[C@H](C)C2)cc1NC(=O)c1cnn2cc(-c3cn(C)nc3C)sc12 [Example 431] | 5 | 
12 | Cc1ncc(C(=O)NCCN2CC3CCC2CC3)cc1NC(=O)c1cnn2cc(-c3cnn4c3OCCC4)sc12 [Example 477, N-(5-((2-(2-azabicyclo[2.2.2]octan-2-yl)ethyl)carbamoyl)-2-methylpyridin-3-yl)-2-(6,7-dihydro-5H-pyrazolo[5,1-b][1,3]oxazin-3-yl)pyrazolo[5,1-b]thiazole-7-carboxamide] | 45.5 | 
13 | Cc1ncc(NC(=O)CN2CCCC23CCC3)cc1NC(=O)c1cnn2cc(-c3cnn4c3COCC4)sc12 [Example 417, N-(5-(2-(5-azaspiro[3.4]octan-5-yl)acetamido)-2-methylpyridin-3-yl)-2-(6,7-dihydro-4H-pyrazolo[5,1-c][1,4]oxazin-3-yl)pyrazolo[5,1-b]thiazole-7-carboxamide] |  | 2.6
14 | Cc1ncc(C(=O)NCCN2CC3CCC2CC3)cc1NC(=O)c1cnn2cc(-c3cnn4c3COCC4)sc12 [Example 459, N-(5-((2-(2-azabicyclo[2.2.2]octan-2-yl)ethyl)carbamoyl)-2-methylpyridin-3-yl)-2-(6,7-dihydro-4H-pyrazolo[5,1-c][1,4]oxazin-3-yl)pyrazolo[5,1-b]thiazole-7-carboxamide] | 33.7 | 
15 | CCCNCC(=O)Nc1cnc(C)c(NC(=O)c2cnn3cc(-c4cnn5c4OCCC5)sc23)c1 [Example 455, 2-(6,7-dihydro-5H-pyrazolo[5,1-b][1,3]oxazin-3-yl)-N-(2-methyl-5-(2-(propylamino)acetamido)pyridin-3-yl)pyrazolo[5,1-b]thiazole-7-carboxamide] |  | 15
16 | Cc1ncc(NC(=O)CN2CC3(COC3)C2)cc1NC(=O)c1cnn2cc(-c3cnn4c3OCCC4)sc12 [Example 411, N-(5-(2-(2-oxa-6-azaspiro[3.3]heptan-6-yl)acetamido)-2-methylpyridin-3-yl)-2-(6,7-dihydro-5H-pyrazolo[5,1-b][1,3]oxazin-3-yl)pyrazolo[5,1-b]thiazole-7-carboxamide] | 114 | 
17 | Cc1cc(C(=O)NCCN2CCCC23CC3)sc1NC(=O)c1cnn2cc(-c3cnn(C)c3)sc12 [Example 37, N-(5-((2-(4-azaspiro[2.4]heptan-4-yl)ethyl)carbamoyl)-3-methylthiophen-2-yl)-2-(1-methyl-1H-pyrazol-4-yl)pyrazolo[5,1-b]thiazole-7-carboxamide] | 11.2 | 
18 | Cc1ncc(C(=O)NCCN2CC(C)(C)C2)cc1NC(=O)c1cnn2cc(-c3cnn4c3CCC4)sc12 [Example 482, 2-(5,6-dihydro-4H-pyrrolo[1,2-b]pyrazol-3-yl)-N-(5-((2-(3,3-dimethylazetidin-1-yl)ethyl)carbamoyl)-2-methylpyridin-3-yl)pyrazolo[5,1-b]thiazole-7-carboxamide] | 28.6 | 
19 | Cc1ncc(NC(=O)CC2CNC2)cc1NC(=O)c1cnn2cc(-c3cnn4c3CCC4)sc12 [Example 426, N-(5-(2-(azetidin-3-yl)acetamido)-2-methylpyridin-3-yl)-2-(5,6-dihydro-4H-pyrrolo[1,2-b]pyrazol-3-yl)pyrazolo[5,1-b]thiazole-7-carboxamide] | > 2000 | 
20 | Cc1ncc(NC(=O)CN2CCCC2(C)C)cc1NC(=O)c1cnn2cc(-c3cnn4c3COCC4)sc12 [Example 458, 2-(6,7-dihydro-4H-pyrazolo[5,1-c][1,4]oxazin-3-yl)-N-(5-(2-(2,2-dimethylpyrrolidin-1-yl)acetamido)-2-methylpyridin-3-yl)pyrazolo[5,1-b]thiazole-7-carboxamide] | 2 | 
21 | Cc1ncc(C(=O)NCCN2CC(C)(C)C2)cc1NC(=O)c1cnn2cc(-c3cnn4c3OCCC4)sc12 [Example 479, 2-(6,7-dihydro-5H-pyrazolo[5,1-b][1,3]oxazin-3-yl)-N-(5-((2-(3,3-dimethylazetidin-1-yl)ethyl)carbamoyl)-2-methylpyridin-3-yl)pyrazolo[5,1-b]thiazole-7-carboxamide] | 97.1 | 
22 | Cc1ncc(NC(=O)CN2CC(C)(C)C2)cc1NC(=O)c1cnn2cc(-c3cnn(C(F)F)c3)sc12 [Example 428, 2-(1-(difluoromethyl)-1H-pyrazol-4-yl)-N-(5-(2-(3,3-dimethylazetidin-1-yl)acetamido)-2-methylpyridin-3-yl)pyrazolo[5,1-b]thiazole-7-carboxamide] | 7.9 | 
23 | Cc1ncc(NC(=O)CN2CCC[C@@H]2C)cc1NC(=O)c1cnn2cc(-c3cnn4c3CCC4)sc12 [Example 416, (S)-2-(5,6-dihydro-4H-pyrrolo[1,2-b]pyrazol-3-yl)-N-(2-methyl-5-(2-(2-methylpyrrolidin-1-yl)acetamido)pyridin-3-yl)pyrazolo[5,1-b]thiazole-7-carboxamide] | 2.3 | 
24 | Cc1ncc(NC(=O)CN2CCC[C@@H]2C)cc1NC(=O)c1cnn2cc(-c3cnn4c3OCCC4)sc12 [Example 413, (S)-2-(6,7-dihydro-5H-pyrazolo[5,1-b][1,3]oxazin-3-yl)-N-(2-methyl-5-(2-(2-methylpyrrolidin-1-yl)acetamido)pyridin-3-yl)pyrazolo[5,1-b]thiazole-7-carboxamide] | 3.4 | 
25 | Cc1ncc(C(=O)NCCN2CCCC23CCC3)cc1NC(=O)c1cnn2cc(-c3cnn4c3OCCC4)sc12 [Example 478, N-(5-((2-(5-azaspiro[3.4]octan-5-yl)ethyl)carbamoyl)-2-methylpyridin-3-yl)-2-(6,7-dihydro-5H-pyrazolo[5,1-b][1,3]oxazin-3-yl)pyrazolo[5,1-b]thiazole-7-carboxamide] | 4.6 | 
26 | Cc1ncc(NC(=O)CNC2CCC2)cc1NC(=O)c1cnn2cc(-c3cnn4c3CCC4)sc12 [Example 471, N-(5-(2-(cyclobutylamino)acetamido)-2-methylpyridin-3-yl)-2-(5,6-dihydro-4H-pyrrolo[1,2-b]pyrazol-3-yl)pyrazolo[5,1-b]thiazole-7-carboxamide] | 3.4 | 
27 | Cc1ncc(NC(=O)NCCN2CCCC2(C)C)cc1NC(=O)c1cnn2cc(-c3cnn(C)c3)sc12 [Example 38, N-(5-(3-(2-(2,2-dimethylpyrrolidin-1-yl)ethyl)ureido)-2-methyl-pyridin-3-yl)-2-(1-methyl-1H-pyrazol-4-yl)pyrazolo[5,1-b]thiazole-7-carboxamide] | 3000 | 
